Values joined by “and” are separate entries in the source; they are usually repeats but may differ in a detail not shown here. Equal entries are not always repeated.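 Values below derive from 48-hour exposures of cells grown in 96-well plates, with endpoints linearly interpolated between the two concentrations bracketing the appropriate inhibition level. GI50 marks 50% less growth.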 Active and inactive are the calls of the source. No stated cut-off is given here; in the data, active = GI50 up to about 1.1 µM and inactive = higher.
Legend:
Test in all cases: growth of human tumour cells (NCI), 48 h
U-251 = test system: U-251
EKVX = test system: EKVX
HCT-116 = test system: HCT-116
MOLT-4 = test system: MOLT-4
A549 = test system: A549
UO-31 = test system: UO-31
RPMI-8226 = test system: RPMI-8226
OVCAR-5 = test system: OVCAR-5
UACC-257 = test system: UACC-257
SNB-19 = test system: SNB-19
COLO 205 = test system: COLO 205
HOP-92 = test system: HOP-92
KM12 = test system: KM12
ACHN = test system: ACHN
NCI-H522 = test system: NCI-H522

Measured: GI50

COC(=O)CSc1ccccc1
inactive: U-251 > 100 µM | EKVX > 100 µM | HCT-116 > 100 µM | MOLT-4 > 100 µM | A549 > 100 µM | UO-31 > 100 µM | RPMI-8226 > 100 µM | OVCAR-5 > 100 µM | UACC-257 > 100 µM | SNB-19 > 100 µM | COLO 205 > 100 µM | HOP-92 50.9 µM | KM12 > 100 µM | ACHN > 100 µM

COC1/C(=C\C(=O)OC(C)(C)C)c2ccccc2N1C(C)=O (stereo unspecified)
inactive: U-251 > 100 µM | EKVX > 100 µM | HCT-116 > 100 µM | MOLT-4 81.7 µM | A549 > 100 µM | UO-31 > 100 µM | RPMI-8226 34.8 µM | UACC-257 > 100 µM | SNB-19 > 100 µM | COLO 205 > 100 µM | KM12 9.53 µM | ACHN > 100 µM

CCCCCCCCCCCCCP(=O)(O)OCC
inactive: U-251 > 100 µM | EKVX > 100 µM | HCT-116 > 100 µM | A549 > 100 µM | UO-31 > 100 µM | NCI-H522 > 100 µM | OVCAR-5 > 100 µM | UACC-257 > 100 µM | SNB-19 > 100 µM | COLO 205 > 100 µM | HOP-92 > 100 µM | KM12 > 100 µM | ACHN > 100 µM

CC(C)OP(=S)(NC(=S)c1ccccc1)OC(C)C
inactive: U-251 > 100 µM | EKVX > 100 µM | HCT-116 > 100 µM | MOLT-4 > 100 µM | A549 > 100 µM | UO-31 > 100 µM | OVCAR-5 > 100 µM | UACC-257 > 100 µM | SNB-19 > 100 µM | COLO 205 > 100 µM | HOP-92 > 100 µM | KM12 > 100 µM | ACHN > 100 µM

COC(=O)CC(C(C(C)=O)C(=O)OCc1ccccc1)N1C(=O)OC(c2ccccc2)C1c1ccccc1 (stereo unspecified)
inactive: U-251 96.6 µM and 75.5 µM | EKVX 64.4 µM | HCT-116 39.3 µM and 24.2 µM | MOLT-4 36.4 µM and 42.3 µM | A549 68.5 µM and 76.2 µM | NCI-H522 38.3 µM and 22.9 µM | RPMI-8226 28.8 µM and 33.5 µM | COLO 205 72.4 µM and 77.4 µM | KM12 42 µM and 35.6 µM | ACHN > 100 µM

Cc1nc(-c2nc(C)c(C(=O)NNC(=O)C[n+]3ccccc3)s2)sc1C(=O)NNC(=O)C[n+]1ccccc1
inactive: U-251 79.4 µM | EKVX 97.3 µM | HCT-116 47 µM | MOLT-4 22.7 µM | A549 > 100 µM | UO-31 25.9 µM | RPMI-8226 64.6 µM | OVCAR-5 > 100 µM | UACC-257 94.2 µM | SNB-19 25.4 µM | COLO 205 > 100 µM | HOP-92 27.5 µM | KM12 > 100 µM | ACHN 59.2 µM

From ChEMBL document CHEMBL1201862, “PubChem BioAssay data set” (2004)
